Results reported in ChEMBL document CHEMBL5625209, “Rational design and optimization of acylthioureas as novel potent influenza virus non-nucleoside polymerase inhibitors” (Eur J Med Chem, 2023).
Active and inactive are the calls of the source. No cut-off for these calls is given here.

Legend:
Influenza A virus [1] = test: Inhibition of Influenza A virus RdRp activity assessed as reduction in Fluc/Rluc ratio at 0.1 to 10 uM; conditions: dose 0.1-10 µM
Influenza A virus [2] = test: Antiviral activity against Influenza A virus H1N1 (A/Puerto Rico/8/34) infected in MDCK cells assessed as reduction in virus-induced cytopathic effect incubated for 48 hrs by CCK8 assay; format: functional, organism-based
Influenza A virus [3] = test: Antiviral activity against Influenza A virus H1N1 (A/Puerto Rico/8/34) infected in MDCK cells assessed as reduction in NP protein level at 1 uM in presence of 1000 uM rNTP by Western blot analysis; format: functional, organism-based
Influenza A virus [4] = test: Antiviral activity against Influenza A virus H1N1 (A/Puerto Rico/8/34) infected in MDCK cells assessed as reduction in NP protein level at 10 uM in presence of rATP by Western blot analysis; format: functional, organism-based
Influenza A virus [5] = test: Antiviral activity against Influenza A virus H1N1 (A/Puerto Rico/8/34) infected in MDCK cells assessed as reduction in NP protein level at 10 uM in presence of rGTP by Western blot analysis; format: functional, organism-based
Influenza A virus [6] = test: Antiviral activity against Influenza A virus H1N1 (A/Puerto Rico/8/34) infected in MDCK cells assessed as reduction in NP protein level at 10 uM in presence of 125 uM rNTP by Western blot analysis; format: functional, organism-based
Influenza A virus [7] = test: Antiviral activity against Influenza A virus H1N1 (A/Puerto Rico/8/34) infected in MDCK cells assessed as reduction in NP viral RNA level at 10 uM treated at 1 hr post infection by qRT-PCR analysis; format: functional, organism-based
Influenza A virus [8] = test: Antiviral activity against Influenza A virus H1N1 (A/Puerto Rico/8/34) infected in MDCK cells assessed as reduction in NP protein level at 10 uM treated at 1 hr post infection by Western blot analysis; format: functional, organism-based
[9] = Metabolic stability in human plasma after 15 mins by LC-MS/MS analysis; format: ADME, cell-free; conditions: 0.25 h, BLD = below limit of detection
[10] = Metabolic stability in human plasma measured upto 120 mins by LC-MS/MS analysis; format: ADME, cell-free; conditions: 2 h
[11] = Metabolic stability in human plasma assessed as half life measured upto 120 mins by LC-MS/MS analysis; format: ADME, cell-free
[12] = AUC(0 to t) in Sprague-Dawley rat at 10 mg/kg, po measured up to 24 hrs by LC-MS analysis; format: ADME, organism-based; conditions: in vivo
[13] = Tmax in Sprague-Dawley rat at 10 mg/kg, po measured up to 24 hrs by LC-MS analysis; format: ADME, organism-based; conditions: in vivo
[14] = Half life in Sprague-Dawley rat at 3 mg/kg, iv measured up to 24 hrs by LC-MS analysis; format: ADME, organism-based; conditions: in vivo
[15] = AUC(0 to t) in Sprague-Dawley rat at 3 mg/kg, iv measured up to 24 hrs by LC-MS analysis; format: ADME, organism-based; conditions: in vivo
[16] = Oral bioavailability in Sprague-Dawley rat at 10 mg/kg measured up to 24 hrs by LC-MS analysis; format: ADME, organism-based; conditions: in vivo
Influenza B virus [17] = test: Antiviral activity against influenza B virus B/Yamagata/16/88 infected in MDCK cells; format: functional, organism-based; conditions: B/Yamagata/16/88, MDCK
[18] = Cmax in Sprague-Dawley rat at 3 mg/kg, iv measured up to 24 hrs by LC-MS analysis; format: ADME, organism-based; conditions: in vivo
[19] = AUC(0 to infinity) in Sprague-Dawley rat at 10 mg/kg, po measured up to 24 hrs by LC-MS analysis; format: ADME, organism-based; conditions: in vivo
Influenza B virus [20] = test: Antiviral activity against influenza B virus Victoria/2/87 infected in MDCK cells; format: functional, organism-based; conditions: Victoria/2/87, MDCK
[21] = Cmax in Sprague-Dawley rat at 10 mg/kg, po measured up to 24 hrs by LC-MS analysis; format: ADME, organism-based; conditions: in vivo
[22] = Half life in Sprague-Dawley rat at 10 mg/kg, po measured up to 24 hrs by LC-MS analysis; format: ADME, organism-based; conditions: in vivo
[23] = Cytotoxicity against MDCK cells by CCK-8 assay; format: toxicity, cell-based, Canis lupus familiaris; conditions: dog
[24] = AUC(0 to infinity) in Sprague-Dawley rat at 3 mg/kg, iv measured up to 24 hrs by LC-MS analysis; format: ADME, organism-based; conditions: in vivo
[25] = Tmax in Sprague-Dawley rat at 3 mg/kg, iv measured up to 24 hrs by LC-MS analysis; format: ADME, organism-based; conditions: in vivo
[26] = Selectivity index, ratio of CC50 for MDCK cells to EC50 for antiviral activity against Influenza A virus H1N1 (A/Puerto Rico/8/34) infected in MDCK cells; format: toxicity, cell-based; conditions: dog, read-out: Ratio CC50/EC50
[27] = Metabolic stability in dog liver microsomes assessed as half life preincubated for 5 mins followed by NADPH addition and measured upto 45 mins by LC-MS analysis; format: ADME, Canis lupus familiaris, Microsome; conditions: time < 50 min
[28] = Metabolic stability in human liver microsomes assessed as half life preincubated for 5 mins followed by NADPH addition and measured upto 45 mins by LC-MS analysis; format: ADME, Microsome; conditions: time < 50 min
[29] = Metabolic stability in dog liver microsomes assessed as hepatic extraction ratio preincubated for 5 mins followed by NADPH addition and measured upto 45 mins by LC-MS analysis; format: ADME, Canis lupus familiaris, Microsome; conditions: time < 50 min
[30] = Metabolic stability in mouse liver microsomes assessed as half life preincubated for 5 mins followed by NADPH addition and measured upto 45 mins by LC-MS analysis; format: ADME, Microsome; conditions: time < 50 min
[31] = Metabolic stability in mouse liver microsomes assessed as hepatic extraction ratio preincubated for 5 mins followed by NADPH addition and measured upto 45 mins by LC-MS analysis; format: ADME, Microsome; conditions: time < 50 min
[32] = Metabolic stability in human liver microsomes assessed as intrinsic clearance preincubated for 5 mins followed by NADPH addition and measured upto 45 mins by LC-MS analysis; format: ADME, Microsome; conditions: time < 50 min, read-out: CLH
[33] = Metabolic stability in mouse liver microsomes assessed as hepatic clearance preincubated for 5 mins followed by NADPH addition and measured upto 45 mins by LC-MS analysis; format: ADME, Microsome; conditions: time < 50 min
[34] = Metabolic stability in human liver microsomes assessed as hepatic clearance preincubated for 5 mins followed by NADPH addition and measured upto 45 mins by LC-MS analysis; format: ADME, Microsome; conditions: time < 50 min
[35] = Metabolic stability in dog liver microsomes assessed as intrinsic clearance preincubated for 5 mins followed by NADPH addition and measured upto 45 mins by LC-MS analysis; format: ADME, Canis lupus familiaris, Microsome; conditions: time < 50 min, read-out: CLH
[36] = Metabolic stability in mouse liver microsomes assessed as intrinsic clearance preincubated for 5 mins followed by NADPH addition and measured upto 45 mins by LC-MS analysis; format: ADME, Microsome; conditions: time < 50 min, read-out: CLH
[37] = Metabolic stability in human liver microsomes assessed as hepatic extraction ratio preincubated for 5 mins followed by NADPH addition and measured upto 45 mins by LC-MS analysis; format: ADME, Microsome; conditions: time < 50 min
[38] = Metabolic stability in dog liver microsomes assessed as hepatic clearance preincubated for 5 mins followed by NADPH addition and measured upto 45 mins by LC-MS analysis; format: ADME, Canis lupus familiaris, Microsome; conditions: time < 50 min
[39] = Clearance in Sprague-Dawley rat at 3 mg/kg, iv measured up to 24 hrs by LC-MS analysis; format: ADME, organism-based; conditions: in vivo

## CC(=O)N[C@H]1[C@H]([C@H](O)[C@H](O)CO)OC(C(=O)O)=C[C@@H]1NC(=N)N [ZANAMIVIR]
Influenza A virus [1]
  inhibition: inactive
Influenza A virus [2]
  EC50: 0.065 µM
Influenza A virus [3]
  Activity: Active

## NC(=O)c1ncn([C@@H]2O[C@H](CO)[C@@H](O)[C@H]2O)n1
Influenza A virus [4]
  Activity: inactive
Influenza A virus [5]
  Activity: inactive
Influenza A virus [6]
  Activity: Active

## NC12CC3CC(CC(C3)C1)C2
Influenza A virus [7]
  Activity: Active
Influenza A virus [8]
  Activity: Active

## CCN(CC)CCOC(=O)c1ccc(N)cc1 [PROCAINE]
[9]
  Stability: Bld
[10]
  Stability: Unstable
[11]
  half-life: 1.12 min

## CCC(=O)Nc1ccc(NC(=S)NC(=O)c2ccc(C(C)(C)C)cc2)cc1
[12]
  AUC(0-t) at 24 h: 34 ng·h/mL
[13]
  Tmax: 25.2 min
[14]
  half-life: 51 min
[15]
  AUC(0-t) at 24 h: 1240 ng·h/mL
[16]
  bioavailability: 0.83%
Influenza B virus [17]
  EC50: 2.5 µM
[18]
  Cmax: 3650 ng/mL
[19]
  AUC(0-inf): 36 ng·h/mL
Influenza B virus [20]
  EC50: 3.1 µM
[21]
  Cmax: 13 ng/mL
Influenza A virus [2]
  EC50: 0.016 µM
[22]
  half-life: 113 min
[23]
  CC50: 86.9 µM
[24]; iv, 3 mg/kg, 24 h
  AUC: 1236 ng·h/mL
[25]
  Tmax: 4.8 min
[26]
  selectivity ratio: 5430

## O=C(c1ccc(F)cc1)C1CCN(CCn2c(=O)[nH]c3ccccc3c2=O)CC1 [KETANSERIN]
[27]
  half-life: 48.5 min
[28]
  half-life: 37.2 min
[29]
  hepatic extraction ratio at 0.75 h: 69.7%
[30]
  half-life: 18.6 min
[31]
  hepatic extraction ratio at 0.75 h: 76.5%
[32]
  CLint scaled: 46.7 mL/min/kg
[33]
  CLhep predicted: 68.8 mL/min/kg
[34]
  CLhep predicted: 14.3 mL/min/kg
[35]
  CLint scaled: 71.2 mL/min/kg
[36]
  CLint scaled: 293 mL/min/kg
[37]
  hepatic extraction ratio at 0.75 h: 69.3%
[38]
  CLhep predicted: 21.6 mL/min/kg

## CC(C)(C)c1ccc(C(=O)NC(=S)Nc2ccc(O)cc2)cc1
[12]
  AUC(0-t) at 24 h: 44.3 ng·h/mL
[13]
  Tmax: 94.8 min
[14]
  half-life: 30.6 min
[15]
  AUC(0-t) at 24 h: 1100 ng·h/mL
[16]
  bioavailability: 1.21%
Influenza B virus [17]
  EC50: 4 µM
[39]
  clearance: 46.4 mL/min/kg
[18]
  Cmax: 2520 ng/mL
Influenza B virus [20]
  EC50: 5.2 µM
[21]
  Cmax: 12.8 ng/mL
Influenza A virus [2]
  EC50: 0.02 µM
[23]
  CC50: 77.7 µM
[24]; Sprague-Dawley
  AUC(0-inf): 1100 ng·h/mL
[25]
  Tmax: 4.8 min
[26]
  selectivity ratio: 3880
